According to patent EP0942896B1, “SUBSTITUTED PHENOLS AND THIOPHENOLS USEFUL AS ANTIOXIDANT AGENTS” (Aventis Pharmaceuticals Inc., priority 1996, dated 1998):

Test system: Choleterol-Fed Female New Zealand White Rabbits
Experiment: Hypocholesterolemic effects in cholesterol-fed rabbits: serum cholesterol, lipoprotein cholesterol, triglycerides
Format: in vivo
Details: % of control, diet 0.4%, 7 days, 0.2% cholesterol chow, N = 5
Excerpt: Perform five independent experiments in the following manner. Each study has a control group and 1-5 groups treated with MDL compound (N = 5 per group). Feed Female New Zealand White rabbits (Hazelton, ∼ 2.0-2.3 kg) 0.2% cholesterol enriched rabbit chow (Purina #5322) with or without 0.4% MDL compound. Solubilize the MDL compounds in 100% ethanol. Spray the chow with the MDL mixtures and allow to dry overnight in a chemical fume hood. Spray control chow with ethanol. Feed rabbits 100 grams food per day for 7 days (0.6% MDL 103,491 were fed for 14 days); make available water ad libitum. On day 7, bleed (~ 2 mL) rabbits (fasted overnight) from a marginal ear vein. Euthanize rabbits by carbon dioxide overdose. Record the total body and liver weights in grams. Record food as grams • day^-1 · rabbit^-1. Use aliquots of fresh serum for clinical chemistries, lipoprotein cholesterol determination, thiobarbituric acid reactive substances (TBARS) and compound and metabolite concentrations in serum. Freeze livers (∼ 5 gram aliquots) at -20°C for compound and metabolite concentration determination at a later time.
Allow blood to clot at room temperature for 30 minutes. Obtain serum after centrifugation for 10 min at 5°C at 3000 rpm in a Beckman GPKR centrifuge with a GH rotor. Analyze by a COBAS MIRA autoanalyzer (Roche Diagnostics) using Roche diagnostic reagents for total cholesterol (CHOL, kit # 44334) and triglyceride (TG, kit # 44120). Calculate cholesterol and triglycerides as mg/dL.
Separate lipoprotein fractions (very low density lipoprotein, VLDL, low density lipoprotein, LDL and high density lipoprotein, HDL) on a Sepharose 6HR column (1 x 30 cm, Pharmacia) attached to a Waters Powerline HPLC system. Inject serum (50 µL) onto the column and elute with phosphate buffered saline, pH 7.4, at a flow rate of 0.5 mL/min. Add cholesterol reagent (Roche Diagnostics, kit # 44334, diluted with 20 mL water and then with 20 mL of 0.9% saline) at 0.2 mL/min to the post column eluant and incubate in a knitted PFTE Kratos reaction coil (Applied Biosystems) at 37°C for 5 min. Measure absorbance at 500 nm. The lipoprotein subfractions are quantitated as follows: (total serum cholesterol) x (% area under the curve for each subfraction) [formula]

CC(C)=CCC[C@H](C)CCOc1cc(C(C)(C)C)c(O)c(C(C)(C)C)c1 [MDL 103,294, Phenol, 2,6-bis(1,1-dimethylethyl)-4-[(3,7-dimethyl-6-octenyl)oxy]-, (S)-]
HDL (High Density lipoprotein cholesterol): 192%
LDL (Low Density lipoprotein cholesterol): 82%
chol tot. (total cholesterol in serum, fasted overnight): 94%
TRIG (triglycerides in serum): 197%
